# Source: patent US20040248918A1, “N-phenyl-2-pyrimidine-amine derivatives and process for the preparation thereof” (IL YANG PHARM. CO., LTD., priority 2003, published 2004)
# Columns and labels:
# [1] = system: pancreatic cancer cell of PANC-1; test: Growth inhibition of PANC-1 (MTT); type: cell-based
# [2] = system: pancreatic cancer cell of CAPAN-2; test: Growth inhibition of CAPAN-2 (MTT); type: cell-based; conditions: CAPAN-2
# [3] = system: colon cancer cell of SNU-C1; test: Growth inhibition of SNU-C1 (MTT); type: cell-based
# [4] = system: rectal cancer cell of CMT-93; test: Growth inhibition of CMT-93 (MTT); type: cell-based
# Protocol: (§1) In the present experiment, the inhibitory activity of the compound of formula (1) was determined against the growth of K562 cancer cell. First, the cells were allowed to stand in RPMI (Roswell Park Memorial Institute)-1640 medium containing 10% (v/v) fetal bovine serum in an incubator of 37° C. and 5% by volume of CO2. The cancer cells (1000 cells) were transferred to a 96-well plate, and the test compound was diluted. The plate was allowed to stand under the above mentioned conditions for 2 days. After this treatment, to the cells was added 0.2% MTT (3-[4,5-dimethylthiazol-2-yl]-2,5-diphenyltetrazolium bromide) solution, and the resulting mixture was allowed to stand under the constant temperature-condition for 4 hours. The supernatant was removed to leave the resulting crystal. DMSO was added to dissolve the crystal, and the absorbance of the solution was measured at 540 nm. IC50 value was calculated using a computer system according to the following formula: […]
# (§2) The test was performed according to the same procedure as Experiment 1.
# [5] = system: cervical cancer cell of HeLa229; test: Growth inhibition of HeLa 229 (MTT); type: cell-based
# [6] = system: encephalophyma cell of A172; test: Growth inhibition of A172 (MTT); type: cell-based
# Protocol: as §1, §2
# [7] = system: bladder cancer cell of HT-1197; test: Growth inhibition of HT-1197 (MTT); type: cell-based
# Protocol: as §1, §2
# [8] = system: K562 cancer cell (CML cell line); test: Growth inhibition of K562 cancer cell (MTT); type: cell-based; conditions: Homo sapiens, K562, 48 h, K562, 2 days, MTT; read-out: IC50
# Protocol: In the present experiment, the inhibitory activity of the compound of formula (1) was determined against the growth of K562 cancer cell. First, the cells were allowed to stand in RPMI (Roswell Park Memorial Institute)-1640 medium containing 10% (v/v) fetal bovine serum in an incubator of 37° C. and 5% by volume of CO2. The cancer cells (1000 cells) were transferred to a 96-well plate, and the test compound was diluted. The plate was allowed to stand under the above mentioned conditions for 2 days. […] The supernatant was removed to leave the resulting crystal.
# [9] = system: L1210 cancer cell (leukemia cell line); test: Growth inhibition of L1210 cancer cell (MTT); type: cell-based; conditions: Mus musculus
# Protocol: as §1
# In the present experiment, the inhibitory activity of the compound of formula (1) was determined against the growth of L1210 cancer cell. The test was performed according to the same procedure as Experiment 1.
# [10] = system: U937 cancer cell (monocyte like leukemia cell line); test: Growth inhibition of U937 cancer cell (MTT); type: cell-based
# Protocol: as §1
# In the present experiment, the inhibitory activity of the compound of formula (1) was determined against the growth of U937 cancer cell. The test was performed according to the same procedure as Experiment 1.
# lung cancer cell (A549) = test: Growth inhibition of A549 (MTT); type: cell-based; conditions: Homo sapiens
# Protocol: as §1, §2
# [11] = system: gastric cancer cell (KATO III); test: Growth inhibition of KATO III (MTT); type: cell-based; conditions: Homo sapiens
# Protocol: as §1, §2
# [12] = system: oral epithelial cancer cell (KB); test: Growth inhibition of KB (MTT); type: cell-based; conditions: Homo sapiens
# Protocol: as §1, §2
# [13] = system: hematologic malignancy cell (HL-60); test: Growth inhibition of HL-60 (MTT); type: cell-based; conditions: Homo sapiens
# [14] = system: ovarian cancer cell (SK-OV-03); test: Growth inhibition of SK-OV-03 (MTT); type: cell-based
# Protocol: as §1, §2
# [15] = system: breast cancer cell (MCF-7); test: Growth inhibition of MCF-7 (MTT); type: cell-based; conditions: Homo sapiens, MCF7
# Protocol: as §1, §2
# [16] = system: prostatic cancer cell (DU-145); test: Growth inhibition of DU-145 (MTT); type: cell-based; conditions: Homo sapiens
# Protocol: as §1, §2
# [17] = system: acute myelogenous leukemia cell (KG-1); test: Growth inhibition of KG-1 (MTT); type: cell-based
# [18] = system: lymphoma cell (RPMI-6666); test: Growth inhibition of RPMI-6666 (MTT); type: cell-based
# Protocol: as §1, §2
# hepatoma cell (SNU-182) = test: Growth inhibition of SNU-182 (MTT); type: cell-based; conditions: Homo sapiens
# Protocol: as §1, §2
# [19] = Comparative pharmacokinetic test in white rats; type: in vivo, white rats (Sprague-Dawley); conditions: male, Sprague-Dawley, plasma, po, rat, 50 mg/kg, P.O.
# Protocol: On the previous day to the test, white rats (Sprague-Dawley, 250˜280 g, male) were put under anesthesia by pentobarbital sodium (50 mg/kg, I.P.). Then, cannula (polyethylene tube; diameter: 0.58mm) was introduced into the rats via the carotid artery and jugular vein, and drawn out to the back. After the operation, the rats were fasted for 16 hours and used for the test. […] Blood was collected in 0, 0.5, 1, 1.5, 2, 2.5, 3, 3.5, 4, 4.5, 5, 6, 8, 10, 12, and 24 hours from the carotid artery. The samples for HPLC analysis were prepared using the collected blood according to the following procedure and were analyzed under the following conditions.
# Blood was collected by an amount of 0.5 ml at each prearranged time and centrifuged at 15000 rpm for 7 minutes to separate […] of plasma. In order to remove proteins, MeOH was added in an amount of […], twice as much as the amount of plasma, and the mixture was shaken for 30 minutes. The mixture was centrifuged again at 15000 rpm for 5 minutes to give protein free supernatant, which was then analyzed by HPLC.
# Flow rate: 1.0 ml/min, UV detection at 267 nm
# Column: 4.6×150 mm, 5C18-AR-II, COSMOSIL
# Eluent: Mixture of ion pair sample (420 ml) and MeOH (580 ml)
# Ion pair sample: 7.5 g of 1-octanesulfonic acid was dissolved in 800 ml of water. The resulting mixture was adjusted to pH 2.5 using phosphoric acid and diluted with water to 1000 ml volume.
# Here, the pharmacokinetic parameters are Tmax (time to reach the maximum blood concentration), Cmax (maximum blood concentration), AUC (area under the curve of time-blood concentration), and T1/2 (half time in blood), and the AUC was calculated under trapezoid rule (see Tables 6, 7 and FIGS. 1, 2).
# [20] = Acute toxicity test in mice (oral administration); conditions: both sexes, ICR, mouse, in vivo, 2000 mg/kg; mice, oral
# Protocol: (§3) In order to determine the acute toxicity of the compound of the present invention when the compound is orally administered, mice (ICR, 24˜26 g) were fasted for 16 hours. One group consists of 10 males and 10 females. The first group is the control group and physiological saline was administered per oral to this group. The compounds of Examples 2 and 4 were orally administered in a dosage of 2000 mg/kg, the maximum dosage in acute toxicity test, to each test group. […] On the last day of the test, 14th day from the start, the mice were subjected to an autopsy in order to examine changes of the internal organs. […] This means that the compounds of the present invention including those of Examples 2 and 4 are safe in the aspect of acute toxicity.
# mice (ICR) = test: Acute toxicity test in mice (oral administration); conditions: mouse, in vivo, po, 2000 mg/kg
# Protocol: as §3
smiles,measurement,setting,value
"O=c1[nH]cc(F)c(=O)[nH]1 [Example 5-FU, 5-Fu, reference compound]",IC50,[1],553.8 µg/mL
same,IC50,[2],1000> μg/ml
same,IC50,[3],95.3 µg/mL
same,IC50,[4],1.1 µg/mL
same,IC50,[5],81.03 µg/mL
same,IC50,[6],99 µg/mL
same,IC50,[7],98.5 µg/mL
"N.N.[Cl][Pt][Cl] [Cisplatin, cisplatin, reference compound]",IC50,[1],41.55 µg/mL
same,IC50,[2],496.9 µg/mL
same,IC50,[3],302 µg/mL
same,IC50,[4],0.67 µg/mL
same,IC50,[5],0.9 µg/mL
same,IC50,[6],5.7 µg/mL
same,IC50,[7],7.5 µg/mL
"CS(=O)(=O)O.Cc1ccc(NC(=O)c2ccc(CN3CCCN(C)CC3)cc2)cc1Nc1nccc(-c2cccnc2)n1 [Example 2, 4-(4-methylhomopiperazin-1-ylmethyl)-N-[4-methyl-3-(4-(pyridin-3-yl)pyrimidin-2-yl)aminophenyl]benzamide methanesulfonate]",IC50,[8],1.2 µg/mL
same,IC50,[9],7.6 µg/mL
same,Improved activity versus Imatinib mesylate,[10],40 times
same,IC50,"[10]; Homo sapiens, U-937",0.7 µg/mL
same,IC50,lung cancer cell (A549),27.6 µg/mL
same,IC50,[11],30 µg/mL
same,IC50,[12],31.6 µg/mL
same,IC50,[13],17.7 µg/mL
same,IC50,[14],38 µg/mL
same,IC50,[15],36.2 µg/mL
same,IC50,[16],30.3 µg/mL
same,IC50 as fraction of that of Imatinib mesylate,[17],¼
same,IC50,[17]; Homo sapiens,7.31 µg/mL
same,IC50 as fraction of that of Imatinib mesylate,[18],½
same,IC50,[18]; Homo sapiens,14.7 µg/mL
same,IC50,hepatoma cell (SNU-182),24.7 µg/mL
same,Cmax,[19],2200 ng/mL
same,Tmax,[19],1.5 h
same,AUC,[19]; trapezoid rule,26200 ng·h/mL
same,LD50 at 14 days,[20],≥ 2000 mg/kg
same,Clinical conditions and autopsy,mice (ICR),neither abnormal response nor specific autopsy result was observed
same,Mortality during the test period,mice (ICR),no mouse died
